In US6992083B2, “Benzoxazol derivatives” (Hoffman-La Roche Inc., priority 2003, dated 2006):

Key:
[1] = molecular target: T1, hA1 (Homo sapiens, UniProt P30542); test: selectivity to the A1 receptor; format: binding; details: selectivity of A2a affinity versus hA1
T1 sequence (P30542 1-326): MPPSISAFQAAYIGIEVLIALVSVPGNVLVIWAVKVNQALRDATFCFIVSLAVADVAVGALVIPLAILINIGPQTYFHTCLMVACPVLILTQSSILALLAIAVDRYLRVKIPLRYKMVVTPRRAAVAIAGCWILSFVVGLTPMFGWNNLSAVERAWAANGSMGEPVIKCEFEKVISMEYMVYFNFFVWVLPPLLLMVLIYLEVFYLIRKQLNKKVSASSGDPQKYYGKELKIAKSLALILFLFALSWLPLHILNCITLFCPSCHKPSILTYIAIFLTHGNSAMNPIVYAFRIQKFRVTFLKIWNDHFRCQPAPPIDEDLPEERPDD

[2] = molecular target: T2, human adenosine A2A receptor (Homo sapiens, UniProt P29274); test: [3H]-SCH-58261 binding assay, human adenosine A2A receptor; details: recombinant receptor in CHO cell membranes, [3H]-SCH-58261 1 nM, Ki by Cheng-Prussoff; read-out: hA2a pKi (converted)
T2 construct: expressed in transfected cells; host or cells: CHO cells, Semliki Forest virus expression system; washed membrane preparation
T2 sequence (P29274 whole entry): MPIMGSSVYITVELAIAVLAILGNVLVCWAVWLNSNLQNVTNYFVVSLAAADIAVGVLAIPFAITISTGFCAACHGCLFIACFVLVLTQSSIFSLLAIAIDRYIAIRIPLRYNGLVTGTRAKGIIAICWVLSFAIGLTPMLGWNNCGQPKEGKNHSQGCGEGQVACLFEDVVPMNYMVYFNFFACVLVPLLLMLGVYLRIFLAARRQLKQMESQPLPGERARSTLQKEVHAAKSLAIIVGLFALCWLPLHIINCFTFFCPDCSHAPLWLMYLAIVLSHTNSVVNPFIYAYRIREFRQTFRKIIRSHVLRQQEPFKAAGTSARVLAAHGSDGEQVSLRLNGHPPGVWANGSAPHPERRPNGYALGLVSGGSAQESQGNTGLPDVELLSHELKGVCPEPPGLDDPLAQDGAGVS
Protocol: Human Adenosine A2A Receptor
The human adenosine A2A receptor was recombinantly expressed in Chinese hamster ovary (CHO) cells using the semliki forest virus expression system. Cells were harvested, washed twice by centrifugation, homogenised and again washed by centrifugation. The final washed membrane pellet was suspended in a Tris (50 mM) buffer containing 120 mM NaCl, 5 mM KCl, 2 mM CaCl2 and 10 mM MgCl2 (pH 7.4) (buffer A). The [^3H]-SCH-58261 (Dionisotti et al., 1997, Br J Pharmacol 121, 353; 1 nM) binding assay was carried out in 96-well plates in the presence of 2.5 μg of membrane protein, 0.5 mg of Ysi-poly-1-lysine SPA beads and 0.1 U adenosine deaminase in a final volume of 200 μl of buffer A. Non-specific binding was defined using xanthine amine congener (XAC; 2 μM). Compounds were tested at 10 concentrations from 10 μM–0.3 nM. All assays were conducted in duplicate and repeated at least two times. Assay plates were incubated for 1 hour at room temperature before centrifugation and then bound ligand determined using a Packard Topcount scintillation counter. IC50 values were calculated using a non-linear curve fitting program and Ki values calculated using the Cheng-Prussoff equation.

| Compound | selectivity to hA1 [1] | Ki [2] [nM] |
| --- | --- | --- |
| COc1ccc(-c2ccccc2)c2oc(NC(=O)c3ccc(F)cc3)nc12 [Example 1, 4-Fluoro-N-(4-methoxy-7-phenyl-benzooxazol-2-yl)-benzamide] | 26 | 12 |
| COCCN(C)Cc1ccc(C(=O)Nc2nc3c(OC)ccc(-c4ccccc4)c3o2)cc1 [Example 2, 4-{[(2-Methoxy-ethyl)-methyl-amino]-methyl}-N-(4-methoxy-7-phenyl-benzooxazol-2-yl)-benzamide] | 137 | 22.4 |
| COc1ccc(C2CCOCC2)c2oc(NC(=O)c3ccc(F)cc3)nc12 [Example 5, 4-Fluoro-N-[4-methoxy-7-(tetrahydro-pyran-4-yl)-benzooxazol-2-yl]-benzamide] | 140 | 21.9 |
| COc1ccc(C2CCOCC2)c2oc(NC(=O)c3ccnc(N4CCOCC4)c3)nc12 [Example 9, N-[4-Methoxy-7-(tetrahydro-pyran-4-yl)-benzooxazol-2-yl]-2-morpholin-4-yl-isonicotinamide] | 351 | 21.9 |
| COc1ccc(-c2ccc(F)cc2)c2oc(NC(=O)c3ccnc(CCl)c3)nc12 [Example 13, 2-Chloromethyl-N-[7-(4-fluoro-phenyl)-4-methoxy-benzooxazol-2-yl]-isonicotinamide] | 227 | 22.9 |
| COc1ccc(-c2ccc(F)cc2)c2oc(NC(=O)c3ccnc(C)c3)nc12 [Example 14, N-[7-(4-Fluoro-phenyl)-4-methoxy-benzooxazol-2-yl]-2-methyl-isonicotinamide] | 134 | 15.8 |
| COc1ccc(-c2ccc(F)cc2)c2oc(NC(=O)c3ccc(C)nc3)nc12 [Example 17, N-[7-(4-Fluoro-phenyl)-4-methoxy-benzooxazol-2-yl]-6-methyl-nicotinamide] | 242 | 12.9 |
| COc1ccc(-c2ccc(F)cc2)c2oc(NC(=O)c3ccc(F)cc3)nc12 [Example 18, 4-Fluoro-N-[7-(4-fluoro-phenyl)-4-methoxy-benzooxazol-2-yl]-benzamide] | 120 | 6.46 |
| COc1ccc(-c2ccc(F)cc2)c2oc(NC(=O)c3ccnc(N4CCOCC4)c3)nc12 [Example 20, N-[7-(4-Fluoro-phenyl)-4-methoxy-benzooxazol-2-yl]-2-morpholin-4-yl-isonicotinamide] | 650 | 8.51 |
| COCc1cc(C(=O)Nc2nc3c(OC)ccc(-c4ccc(F)cc4)c3o2)ccn1 [Example 21, N-[7-(4-Fluoro-phenyl)-4-methoxy-benzooxazol-2-yl]-2-methoxymethyl-isonicotinamide] | 96 | 30.2 |
